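How tested: cells in 96-well plates exposed to compound for 48 hours at five concentrations. The concentration for 50% growth inhibition is given as GI50.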 Calls of active or inactive are those of the source. Cut-off read from the data, not from the text of the source: active = GI50 up to about 1.1 µM and inactive = higher.
What was measured:
Assay in all cases: NCI tumour cell line growth inhibition, 48 h
DMS-114 = system: DMS-114
NCI-H23 = system: NCI-H23
UO-31 = system: UO-31
RPMI-8226 = system: RPMI-8226
HOP-92 = system: HOP-92
SNB-19 = system: SNB-19
NCI-H226 = system: NCI-H226
OVCAR-5 = system: OVCAR-5
OVCAR-4 = system: OVCAR-4
HCC 2998 = system: HCC 2998
SN12C = system: SN12C
ACHN = system: ACHN
COLO 205 = system: COLO 205
A549 = system: A549
MOLT-4 = system: MOLT-4
KM-20L2 = system: KM-20L2
TK-10 = system: TK-10
IGROV-1 = system: IGROV-1
DLD-1 = system: DLD-1
SF-268 = system: SF-268
UACC-62 = system: UACC-62
HOP-18 = system: HOP-18
LOX IMVI = system: LOX IMVI
786-0 = system: 786-0
KM12 = system: KM12
OVCAR-3 = system: OVCAR-3
HL-60 = system: HL-60
HT-29 = system: HT-29
SF-295 = system: SF-295
RXF 393 = system: RXF 393
SK-MEL-2 = system: SK-MEL-2
M19-MEL = system: M19-MEL
HOP-62 = system: HOP-62
UACC-257 = system: UACC-257
SK-MEL-5 = system: SK-MEL-5
HCT-116 = system: HCT-116
XF498 = system: XF498
SK-MEL-28 = system: SK-MEL-28
A498 = system: A498
RXF 631 = system: RXF 631
Malme-3M = system: Malme-3M
U-251 = system: U-251
SNB-78 = system: SNB-78
CCRF-CEM = system: CCRF-CEM
LXFL 529 = system: LXFL 529
EKVX = system: EKVX
OVCAR-8 = system: OVCAR-8
SW-620 = system: SW-620
SNB-75 = system: SNB-75
M14 = system: M14
NCI-H460 = system: NCI-H460
DMS-273 = system: DMS-273
SK-OV-3 = system: SK-OV-3
SR = system: SR
CAKI-1 = system: CAKI-1
SF-539 = system: SF-539
K562 = system: K562
HCT-15 = system: HCT-15
NCI-H522 = system: NCI-H522

CCc1ccccc1NC(=O)C(=O)C(C#N)c1ccccc1Cl (configuration not stated)
GI50 (DMS-114): > 100 µM (inactive) | GI50 (NCI-H23): > 100 µM (inactive) | GI50 (UO-31): > 100 µM (inactive) | GI50 (RPMI-8226): > 100 µM (inactive) | GI50 (HOP-92): > 100 µM (inactive) | GI50 (SNB-19): > 100 µM (inactive) | GI50 (NCI-H226): > 100 µM (inactive) | GI50 (OVCAR-5): > 100 µM (inactive) | GI50 (OVCAR-4): > 100 µM (inactive) | GI50 (HCC 2998): > 100 µM (inactive) | GI50 (SN12C): > 100 µM (inactive) | GI50 (ACHN): > 100 µM (inactive) | GI50 (COLO 205): > 100 µM (inactive) | GI50 (A549): > 100 µM (inactive) | GI50 (MOLT-4): > 100 µM (inactive) | GI50 (KM-20L2): > 100 µM (inactive) | GI50 (TK-10): 2.55 µM (inactive) | GI50 (IGROV-1): > 100 µM (inactive) | GI50 (DLD-1): > 100 µM (inactive) | GI50 (SF-268): > 100 µM (inactive) | GI50 (UACC-62): > 100 µM (inactive) | GI50 (HOP-18): > 100 µM (inactive) | GI50 (LOX IMVI): 3.36 µM (inactive) | GI50 (786-0): > 100 µM (inactive) | GI50 (KM12): > 100 µM (inactive) | GI50 (OVCAR-3): > 100 µM (inactive) | GI50 (HL-60): > 100 µM (inactive) | GI50 (HT-29): > 100 µM (inactive) | GI50 (SF-295): > 100 µM (inactive) | GI50 (RXF 393): > 100 µM (inactive) | GI50 (SK-MEL-2): > 100 µM (inactive) | GI50 (M19-MEL): > 100 µM (inactive) | GI50 (HOP-62): > 100 µM (inactive) | GI50 (UACC-257): > 100 µM (inactive) | GI50 (SK-MEL-5): > 100 µM (inactive) | GI50 (HCT-116): > 100 µM (inactive) | GI50 (XF498): > 100 µM (inactive) | GI50 (SK-MEL-28): > 100 µM (inactive) | GI50 (A498): 35.5 µM (inactive) | GI50 (RXF 631): > 100 µM (inactive) | GI50 (Malme-3M): > 100 µM (inactive) | GI50 (U-251): > 100 µM (inactive) | GI50 (SNB-78): > 100 µM (inactive) | GI50 (CCRF-CEM): > 100 µM (inactive) | GI50 (LXFL 529): > 100 µM (inactive) | GI50 (EKVX): > 100 µM (inactive) | GI50 (OVCAR-8): > 100 µM (inactive) | GI50 (SW-620): > 100 µM (inactive) | GI50 (SNB-75): > 100 µM (inactive) | GI50 (M14): > 100 µM (inactive) | GI50 (NCI-H460): 16.9 µM (inactive)

Cc1c(C(=O)/C=C/c2ccccc2[N+](=O)[O-])[n+]([O-])c2ccccc2[n+]1[O-]
GI50 (DMS-114): 5.55 µM (inactive) | GI50 (NCI-H23): 4.63 µM (inactive) | GI50 (UO-31): 18.8 µM (inactive) | GI50 (RPMI-8226): 2.96 µM (inactive) | GI50 (HOP-92): 13.6 µM (inactive) | GI50 (DMS-273): 3.61 µM (inactive) | GI50 (SNB-19): 19.1 µM (inactive) | GI50 (NCI-H226): 11.4 µM (inactive) | GI50 (OVCAR-5): 13.7 µM (inactive) | GI50 (OVCAR-4): 9.64 µM (inactive) | GI50 (SN12C): 6 µM (inactive) | GI50 (ACHN): 10.6 µM (inactive) | GI50 (COLO 205): 3.13 µM (inactive) | GI50 (A549): 12.5 µM (inactive) | GI50 (MOLT-4): 5.5 µM (inactive) | GI50 (KM-20L2): 5.61 µM (inactive) | GI50 (IGROV-1): 10.6 µM (inactive) | GI50 (DLD-1): 3.53 µM (inactive) | GI50 (SK-OV-3): 17.9 µM (inactive) | GI50 (SR): 4.34 µM (inactive) | GI50 (HOP-18): 15.4 µM (inactive) | GI50 (CAKI-1): 3.61 µM (inactive) | GI50 (SF-539): 3.78 µM (inactive) | GI50 (786-0): 5.53 µM (inactive) | GI50 (K562): 3.39 µM (inactive) | GI50 (KM12): 10.3 µM (inactive) | GI50 (OVCAR-3): 3.76 µM (inactive) | GI50 (HL-60): 1.58 µM (inactive) | GI50 (HT-29): 8.57 µM (inactive) | GI50 (SF-295): 7.5 µM (inactive) | GI50 (SK-MEL-2): 11.3 µM (inactive) | GI50 (M19-MEL): 5.97 µM (inactive) | GI50 (HOP-62): 18.2 µM (inactive) | GI50 (UACC-257): 7.53 µM (inactive) | GI50 (SK-MEL-5): 12 µM (inactive) | GI50 (HCT-116): 3.96 µM (inactive) | GI50 (HCT-15): 3.3 µM | GI50 (SK-MEL-28): 11.7 µM (inactive) | GI50 (A498): 13.3 µM (inactive) | GI50 (RXF 631): 4.34 µM (inactive) | GI50 (Malme-3M): 13.3 µM (inactive) | GI50 (U-251): 15.2 µM (inactive) | GI50 (SNB-78): 12.3 µM (inactive) | GI50 (LXFL 529): 4.89 µM (inactive) | GI50 (EKVX): 14.4 µM (inactive) | GI50 (OVCAR-8): 3.9 µM (inactive) | GI50 (SW-620): 5.13 µM (inactive) | GI50 (SNB-75): 13.2 µM (inactive) | GI50 (M14): 11 µM (inactive) | GI50 (NCI-H460): 4.32 µM (inactive) | GI50 (NCI-H522): 3.94 µM (inactive)

Reference: ChEMBL document CHEMBL1201862, “PubChem BioAssay data set” (2004)
